From paper PMC9536293, “Targeting extracellular matrix remodeling sensitizes glioblastoma to ionizing radiation” (Neuro-Oncology Advances, 2022)

B1: recombinant MMP2: Recombinant MMP2 purchased from R&D Systems, used at 10 ng/ml (protein, UniProt P08253 110-660, looked up)
72 kDa type IV collagenase: YNFFPRKPKWDKNQITYRIIGYTPDLDPETVDDAFARAFQVWSDVTPLRFSRIHDGEADIMINFGRWEHGDGYPFDGKDGLLAHAFAPGTGVGGDSHFDDDELWTLGEGQVVRVKYGNADGEYCKFPFLFNGKEYNSCTDTGRSDGFLWCSTTYNFEKDGKYGFCPHEALFTMGGNAEGQPCKFPFRFQGTSYDSCTTEGRTDGYRWCGTTEDYDRDKKYGFCPETAMSTVGGNSEGAPCVFPFTFLGNKYESCTSAGRSDGKMWCATTANYDDDRKWGFCPDQGYSLFLVAAHEFGHAMGLEHSQDPGALMAPIYTYTKNFRLSQDDIKGIQELYGASPDIDLGTGPTPTLGPVTPEICKQDIVFDGIAQIRGEIFFFKDRFIWRTVTPRDKPMGPLLVATFWPELPEKIDAVYEAPQEEKAVFFAGNEYWIYSASTLERGYPKPLTSLGLPPDVQRVDAAFNWSKNKKTYIFAGDKFWRYNEVKKKMDPGFPKLIADAWNAIPDNLDAVVDLQGGGHSYFFKGAYYLKLENQSLKSVKFGSIKSDWLGC

Key:
Glioblastoma (GBM) = system: Glioblastoma (GBM); parameters: method as in PMID 32478924; conditions: added to radiotherapy; GBM patients; on average; cited from earlier work
913-GSCs = experiment: Invasion through a Matrigel/HA matrix (XCELLigence); type: cell-based, human; conditions: shMT1-MMP 913-GSCs; 10 ng/ml
Procedure: XCELLigence.—Invasion was performed as per the manufacturer’s instructions. Briefly, 10^4 913-GSCs and GBM1 cells were plated on top of uncoated or 0.4% Growth Factor Reduced Matrigel/10 µg/ml hyaluronic acid (HA) coated wells (CIM plate 16). HA was used as it is a major component of brain ECM. Cells were left at room temperature for 30 min to settle and then the plates were placed into an xCELLigence RTCA DP instrument (ACEA Bioscience). Measurements were taken every 15 min for 48 h or up to 6 days. Cell Index (CI) curves normalized to initial seeding were recorded. 3D Decellularized Brain matrix: 10^4 913-GSC cells were embedded in a 3D decellularized mouse brain matrix, derived as in,[16],[17] which retains the architecture and major components of brain ECM. Briefly, Nu/nu mouse brains were cut into small pieces and submerged in decellularizing solution [0.1% (v/v) ammonium hydroxide (Sigma) and 1% (v/v) Triton X-100 (Sigma) in distilled water] for 2 days. After washing in distilled water, the derived ECM was digested with pepsin (1 mg/ml; Sigma) in HCl (0.01 N) for 2 days at room temperature until visible ECM particle disappeared. To make hydrogels, the ECM solution was mixed with 10 × PBS, dilute to the desired final concentration (20 mg/ml) with ice-cold distilled water and adjust to pH7 by NaOH (1 M). […] Invadopodia length was measured and quantified with ImageJ.

Molecule | increase in survival compared to radiotherapy alone (Glioblastoma (GBM)) [months] | invasion of MT1-MMP depleted cells through Matrigel/HA matrix (913-GSCs)
Cn1nnc2c(C(N)=O)ncn2c1=O [TMZ, temozolomide] | 2.5 | 
B1 |  | restored the cells invasive capacity to the levels of controls
